Results reported in ChEMBL document CHEMBL5653627 (J Neurochem, 2017).
Active and inactive are the calls of the source. The calls are words filed in the database; no cut-off is given here.

Key:
[1] = tested on: SMA-540; assay: Antitumor activity against mouse SMA-540 cells xenografted in VM/Dk mouse assessed as decrease in tumor volume at 100 mg/kg,po daily by H and E staining based microscopy; assay type: functional, organism-based
[2] = target: Angiopoietin-1 receptor (Homo sapiens, UniProt Q02763); assay: Binding affinity to TIE2 (unknown origin) assessed as dissociation constant by KINOME scan assay
[3] = tested on: GL261; assay: Cytotoxicity against mouse GL261 cells assessed as reduction in metabolic activity at 0.001 to 100 uM incubated for 72 hrs by MTT assay; assay type: functional, cell-based; conditions: dose 0.001-100 µM
[4] = tested on: SMA-560; assay: Cytotoxicity against mouse SMA-560 cells assessed as reduction in metabolic activity at 0.001 to 100 uM incubated for 72 hrs by MTT assay; assay type: functional, cell-based; conditions: dose 0.001-100 µM
[5] = tested on: GL261; assay: Anti-clonogenicic activity in mouse GL261 cells assessed as reduction in colony formation at 0.001 to 10 uM and measured after 10 days by MTT based clonogenic survival assay; assay type: functional, cell-based; conditions: dose 0.001-10 µM, time 10.0 day
[6] = tested on: SMA-560; assay: Anti-clonogenicic activity in mouse SMA-560 cells assessed as reduction in colony formation at 0.001 to 10 uM and measured after 10 days by MTT based clonogenic survival assay; assay type: functional, cell-based; conditions: dose 0.001-10 µM, time 10.0 day
[7] = tested on: SMA-497; assay: Induction of cell cycle arrest in mouse SMA-497 cells assessed as accumulation at G2/M phase at 0.1 uM incubated for 72 hrs by propidium iodide/RNase staining based flow cytomtery (Rvb= 14%); assay type: functional
[8] = tested on: SMA-497; assay: Induction of cell cycle arrest in mouse SMA-497 cells assessed as accumulation at S phase at 0.1 uM incubated for 72 hrs by propidium iodide/RNase staining based flow cytomtery (Rvb= 8%); assay type: functional
[9] = tested on: SMA-497; assay: Induction of cell cycle arrest in mouse SMA-497 cells assessed as accumulation at G0/G1 phase at 0.1 uM incubated for 72 hrs by propidium iodide/RNase staining based flow cytomtery (Rvb= 76%); assay type: functional
[10] = tested on: SMA-497; assay: Induction of cell cycle arrest in mouse SMA-497 cells assessed as accumulation at sub G1 phase at 0.1 uM incubated for 72 hrs by propidium iodide/RNase staining based flow cytomtery (Rvb= 2%); assay type: functional
[11] = tested on: SMA-560; assay: Induction of cell cycle arrest in mouse SMA-560 cells assessed as accumulation at S phase at 0.1 uM incubated for 72 hrs by propidium iodide/RNase staining based flow cytomtery (Rvb= 2%); assay type: functional
[12] = tested on: SMA-560; assay: Induction of apoptosis in mouse SMA-560 cells assessed as late apoptotic cells at 0.1 uM incubated for 72 hrs by Annexin V-FITC/PI staining based flow cytometric analysis (reference value: 1.83%); assay type: functional
[13] = tested on: SMA-560; assay: Induction of apoptosis in mouse SMA-560 cells assessed as early apoptotic cells at 0.1 uM incubated for 72 hrs by Annexin V-FITC/PI staining based flow cytometric analysis (reference value: 0.0056%); assay type: functional
[14] = tested on: SMA-560; assay: Induction of apoptosis in mouse SMA-560 cells assessed as live cells at 0.1 uM incubated for 72 hrs by Annexin V-FITC/PI staining based flow cytometric analysis (reference value: 84.6%); assay type: functional
[15] = tested on: SMA-497; assay: Anti-clonogenicic activity in mouse SMA-497 cells assessed as reduction in colony formation at 0.1 to 1 uM preincubated for 6 hrs followed by temozolomide addition and measured after 10 days by MTT based clonogenic survival assay; assay type: functional, cell-based; conditions: dose 0.1-1 µM, time 246.0 hrs
[16] = tested on: SMA-497; assay: Anti-clonogenicic activity in mouse SMA-497 cells assessed as reduction in colony formation at 0.1 to 1 uM preincubated for 6 hrs followed by 1 to 9 Gy irradiation with and measured after 10 days by MTT based clonogenic survival assay; assay type: functional, cell-based; conditions: dose 0.1-1 µM, time 246.0 hrs
[17] = tested on: SMA-560; assay: Anti-clonogenicic activity in mouse SMA-560 cells assessed as reduction in colony formation at 0.1 to 1 uM preincubated for 6 hrs followed by 1 to 9 Gy irradiation with and measured after 10 days by MTT based clonogenic survival assay; assay type: functional, cell-based; conditions: dose 0.1-1 µM, time 246.0 hrs
[18] = tested on: SMA-497; assay: In vivo inhibition of TIE-2 in VM/Dk mouse xenografted with mouse SMA-497 cells assessed as decrease in TIE-2 expression in brain blood vessels at 100 mg/kg,po daily by immunohistochemistry analysis; assay type: functional, organism-based
[19] = tested on: SMA-560; assay: In vivo inhibition of TIE-2 in VM/Dk mouse xenografted with mouse SMA-560 cells assessed as decrease in TIE-2 expression in brain blood vessels at 100 mg/kg,po daily by immunohistochemistry analysis; assay type: functional, organism-based
[20] = tested on: SMA-497; assay: Antitumor activity against mouse SMA-497 cells xenografted in VM/Dk mouse assessed as decrease in number of CD31-positive intra-tumoral vessels in tumor at 100 mg/kg,po daily by immunohistochemistry analysis; assay type: functional, organism-based
[21] = tested on: SMA-540; assay: Antitumor activity against mouse SMA-540 cells xenografted in VM/Dk mouse assessed as decrease in number of CD31-positive intra-tumoral vessels in tumor at 100 mg/kg,po daily by immunohistochemistry analysis; assay type: functional, organism-based
[22] = tested on: SMA-540; assay: Antitumor activity against mouse SMA-540 cells xenografted in VM/Dk mouse assessed as increase in number of tumor-infiltrating CD11b positive monocytes/microglia in tumor at 100 mg/kg,po daily by immunohistochemistry analysis; assay type: functional, organism-based
[23] = tested on: SMA-560; assay: Antitumor activity against mouse SMA-560 cells xenografted in VM/Dk mouse assessed as increase in number of tumor-infiltrating CD11b positive monocytes/microglia in tumor at 100 mg/kg,po daily by immunohistochemistry analysis; assay type: functional, organism-based
[24] = tested on: GL261; assay: Antitumor activity against mouse GL261 cells xenografted in C57Bl/6 mouse assessed as increase in number of tumor-infiltrating CD11b positive monocytes/microglia in tumor at 100 mg/kg,po daily by immunohistochemistry analysis; assay type: functional, organism-based
[25] = tested on: SMA-540; assay: Antitumor activity against mouse SMA-540 cells xenografted in VM/Dk mouse assessed as tumor cell proliferation at 100 mg/kg,po daily by Ki67 staining based immunohistochemistry analysis; assay type: functional, organism-based
[26] = tested on: GL261; assay: Antitumor activity against mouse GL261 cells xenografted in C57Bl/6 mouse assessed as decrease in tumor volume at 100 mg/kg,po daily by H and E staining based microscopy; assay type: functional, organism-based
[27] = tested on: SMA-497; assay: Antitumor activity against mouse SMA-497 cells xenografted in VM/Dk mouse assessed as decrease in tumor volume at 100 mg/kg,po daily by H and E staining based microscopy; assay type: functional, organism-based
[28] = Toxicity in VM/Dk mouse xenografted with mouse SMA-540 cells assessed as survival rate at 100 mg/kg,po daily (Rvb=>60%); assay type: organism-based; conditions: in vivo
[29] = tested on: SMA-497; assay: In vivo inhibition of TIE-2 in VM/Dk mouse xenografted with mouse SMA-497 cells assessed as decrease in TIE-2 expression in brain blood vessels at 100 mg/kg,po daily with 12 Gy irradition after 2days of treatment initiation by immunohistochemistry analysis; assay type: functional, organism-based
[30] = tested on: SMA-560; assay: Antitumor activity against mouse SMA-560 cells xenografted in VM/Dk mouse assessed as decrease in number of CD31-positive intra-tumoral vessels in tumor at 100 mg/kg,po daily with 12 Gy irradition after 2days of treatment initiation by immunohistochemistry analysis; assay type: functional, organism-based
[31] = tested on: SMA-497; assay: Antitumor activity against mouse SMA-497 cells xenografted in VM/Dk mouse assessed as decrease in tumor cell proliferation at 100 mg/kg,po daily with 12 Gy irradition after 2days of treatment initiation by Ki67 staining based immunohistochemistry analysis; assay type: functional, organism-based

Chain of Angiopoietin-1 receptor (Q02763 whole entry): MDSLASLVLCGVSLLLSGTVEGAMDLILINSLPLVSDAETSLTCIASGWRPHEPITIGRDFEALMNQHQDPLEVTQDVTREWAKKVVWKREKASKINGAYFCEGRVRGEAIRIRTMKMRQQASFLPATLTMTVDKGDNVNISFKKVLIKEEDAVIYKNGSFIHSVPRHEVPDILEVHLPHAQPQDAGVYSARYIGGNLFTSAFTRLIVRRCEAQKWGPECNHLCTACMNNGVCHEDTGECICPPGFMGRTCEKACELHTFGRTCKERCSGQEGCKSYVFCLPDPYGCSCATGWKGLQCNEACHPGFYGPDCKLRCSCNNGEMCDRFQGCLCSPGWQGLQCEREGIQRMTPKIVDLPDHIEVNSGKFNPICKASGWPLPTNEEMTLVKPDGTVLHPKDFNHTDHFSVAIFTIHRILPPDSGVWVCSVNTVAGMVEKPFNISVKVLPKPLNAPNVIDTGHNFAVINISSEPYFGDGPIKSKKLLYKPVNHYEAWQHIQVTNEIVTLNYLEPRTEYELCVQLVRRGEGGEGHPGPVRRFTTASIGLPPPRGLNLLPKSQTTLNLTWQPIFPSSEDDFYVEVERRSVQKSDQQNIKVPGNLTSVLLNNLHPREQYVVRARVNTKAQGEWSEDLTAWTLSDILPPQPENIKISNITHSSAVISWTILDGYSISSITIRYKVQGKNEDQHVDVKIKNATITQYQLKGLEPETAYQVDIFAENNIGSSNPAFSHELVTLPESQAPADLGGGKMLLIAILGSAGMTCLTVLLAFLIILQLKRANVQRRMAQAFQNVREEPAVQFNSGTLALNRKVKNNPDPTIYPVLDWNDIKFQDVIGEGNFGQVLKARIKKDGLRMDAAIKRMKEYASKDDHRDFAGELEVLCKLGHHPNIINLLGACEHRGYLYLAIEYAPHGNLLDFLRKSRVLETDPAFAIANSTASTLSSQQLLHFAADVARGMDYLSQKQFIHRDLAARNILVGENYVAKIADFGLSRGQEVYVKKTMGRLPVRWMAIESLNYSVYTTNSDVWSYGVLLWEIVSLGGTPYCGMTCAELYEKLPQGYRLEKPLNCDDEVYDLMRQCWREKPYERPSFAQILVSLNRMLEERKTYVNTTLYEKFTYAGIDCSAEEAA

Cc1cc(C)c(-n2ccn3nc(-c4cccnc4)cc23)cc1NC(=O)c1cc(C#N)cc(S(F)(F)(F)(F)F)c1 [BAY-826]
Activity [1]: inactive | Kd [2]: 1.6 nM | Activity [3]: inactive | Activity [4]: inactive | Activity [5]: inactive | Activity [6]: inactive | Activity [7]: 10% | Activity [8]: 11% | Activity [9]: 66% | Activity [10]: 4% | Activity [11]: 3% | Activity [12]: 0.66% | Activity [13]: 0% | Activity [14]: 90.5% | Activity [15]: inactive | Activity [16]: inactive | Activity [17]: inactive | inhibition [18]: Active | inhibition [19]: Active | Activity [20]: inactive | Activity [21]: inactive | Activity [22]: Active | Activity [23]: inactive | Activity [24]: inactive | Activity [25]: inactive | Activity [26]: inactive | Activity [27]: inactive | Survival [28]: > 60% | inhibition [29]: Active | Activity [30]: Active | Activity [31]: Active
